Molecular target: D(2) dopamine receptor (Homo sapiens, UniProt P14416)
Assay: Radioligand Competition Binding Assay
Procedure: A 10 cm culture dish was used for transfection with […] of dopamine D2 receptors and 40 μL of polyethylenimine (PEI hereafter). […] A vacuum pump was used to suck off the culture medium, 3 mL of lysis buffer was added to each culture dish, and the cells were placed in a 4° C. cold room for 10 minutes. After the cells were detached, the cells were transferred to a 15 mL centrifuge tube and centrifuged at 1500 rpm for 5 minutes at 4° C., and the supernatant was discarded. The cell pellet was transferred to a tissue homogenizer, and 3 mL of lysis buffer was added and fully ground until the cells were broken. Then, cell suspension was equally aliquoted into several EP tubes, centrifuged at 12000 rpm for 5 minutes at 4° C., and the supernatant was discarded. […] First, a standard binding buffer was added to the cell membrane component containing the dopamine D2 receptors, and the cell membrane was disrupted and resuspended with an electric tissue homogenizer. 30 μL of membrane protein suspension was added to each well of a 96-well plate. […] Next, 30 μL of [3H]-Methylspiperone was added to each well of the 96-well plate. […] The machine readout value reflected the amount of [3H]-Methylspiperone bound on the membrane, and after further data processing, the affinity Ki values of different compounds for the dopamine D2 receptors were obtained.

Sequence of D(2) dopamine receptor (P14416 whole entry): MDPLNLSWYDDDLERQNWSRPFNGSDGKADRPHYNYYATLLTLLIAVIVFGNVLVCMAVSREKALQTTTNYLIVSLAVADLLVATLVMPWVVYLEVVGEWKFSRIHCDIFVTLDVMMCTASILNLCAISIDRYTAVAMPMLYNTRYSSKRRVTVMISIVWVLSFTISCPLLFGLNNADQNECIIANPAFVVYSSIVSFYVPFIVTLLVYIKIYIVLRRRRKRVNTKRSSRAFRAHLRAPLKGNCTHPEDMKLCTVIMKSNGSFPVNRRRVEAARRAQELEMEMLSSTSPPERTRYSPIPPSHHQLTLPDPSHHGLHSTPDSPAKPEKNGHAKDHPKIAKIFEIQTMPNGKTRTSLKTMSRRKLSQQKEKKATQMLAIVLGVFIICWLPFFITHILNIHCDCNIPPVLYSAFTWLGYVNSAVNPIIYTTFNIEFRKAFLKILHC

Ki: 38 nM
SMILES: CCOc1cccc2c3c(oc12)CN(CCCCc1ccc2ccc(=O)[nH]c2c1)CC3 [US20250109139, Compound I-A25]

Reference: BindingDB's records for patent US20250109139 (Shanghaitech University, 2025)
